Measured values: US8415344B2, “Method of treating depression” (Brookhaven Science Associates, LLC, priority 2009, dated 2013)

Key:
[1] = tested on: astrocyte glutamate transporters; settings: Sun et al.; cited from earlier work
[2] = Rothstein et al.; Lipski et al.; cited from earlier work
[3] = tested on: rats exhibiting learned helplessness (cLH rat line); assay: Learned helplessness testing (lever-press escape paradigm) of cLH rats pre- and post-treatment; format: in vivo; settings: oral diazoxide dissolved in NaOH, 10, 30 or 60 mg per day, three days

For `CC(C)NC(C)(C)C(C)C` [iptakalim], the “stimulating the uptake of glutamate by astrocyte glutamate transporters” value (“stimulating the uptake of glutamate” below) [1] is listed as “shown to be effective”.

For `CC(N/C(=N\C#N)Nc1ccncc1)C(C)(C)C` (centres unmarked) [pinacidil], the “stimulating the uptake of glutamate” value [1] is given as “shown to be effective”.

In the case of `CO/N=C(\C(=O)N[C@@H]1C(=O)N2C(C(=O)O)=C(CSc3nc(=O)c(=O)[nH]n3C)CS[C@H]12)c1csc(N)n1` [Ceftriaxone], the “effectiveness in studies of neuroprotection” value [2] is given as “particularly effective”.

In the case of `CC1=NS(=O)(=O)c2cc(Cl)ccc2N1` [diazoxide], the “stimulating the uptake of glutamate” value [1] is listed as “shown to be effective” and the “number of lever presses post-treatment relative to pre-treatment” value [3] is listed as “substantial increase in the number of lever presses”.
